Patent US9174939B2, “Soft rock inhibitors” (Amakem NV, priority 2011, dated 2015)

How the values were obtained:
[1] = tested on: MLC-T18/S19 phosphorylation by endogenous ROCK in A7r5 cells; test: Myosin Light Chain Phosphorylation assay (ELISA, A7r5 cells); type: cell-based; conditions: A7r5 rat smooth muscle cells, serum-free medium, phospho-MLC-T18/S19 ELISA
Description: C.1.4. Myosin Light Chain Phosphorylation assay
Rat smooth muscle cell line A7r5 is used. The endogenous expression of ROCK results in a constitutive phosphorylation of the regulatory myosin light chain at T18/S19. A7r5 cells were plated in DMEM supplemented with 10% FCS in multiwall cell culture plates. After serum starvation overnight, cells were incubated with compounds in serum-free medium.
Quantification of MLC-T18/S19 phosphorylation is assessed in 96 well-plates via ELISA using a phspho-MLC-T18/S19 specific antibody and a secondary detection antibody. Raw data were converted into percent substrate phosphorylation relative to high controls, which were set to 100%. IC50 values were determined using GraphPad Prism 5.01 software using a nonlinear regression curve fit with variable hill slope.

ROCK II = ROCK II (Homo sapiens, UniProt O75116); test: Kinase inhibition (ROCKI or ROCKII), 33P-ATP filter assay; type: biochemical; conditions: 120 min at room temperature
Sequence of ROCK II (O75116 whole entry): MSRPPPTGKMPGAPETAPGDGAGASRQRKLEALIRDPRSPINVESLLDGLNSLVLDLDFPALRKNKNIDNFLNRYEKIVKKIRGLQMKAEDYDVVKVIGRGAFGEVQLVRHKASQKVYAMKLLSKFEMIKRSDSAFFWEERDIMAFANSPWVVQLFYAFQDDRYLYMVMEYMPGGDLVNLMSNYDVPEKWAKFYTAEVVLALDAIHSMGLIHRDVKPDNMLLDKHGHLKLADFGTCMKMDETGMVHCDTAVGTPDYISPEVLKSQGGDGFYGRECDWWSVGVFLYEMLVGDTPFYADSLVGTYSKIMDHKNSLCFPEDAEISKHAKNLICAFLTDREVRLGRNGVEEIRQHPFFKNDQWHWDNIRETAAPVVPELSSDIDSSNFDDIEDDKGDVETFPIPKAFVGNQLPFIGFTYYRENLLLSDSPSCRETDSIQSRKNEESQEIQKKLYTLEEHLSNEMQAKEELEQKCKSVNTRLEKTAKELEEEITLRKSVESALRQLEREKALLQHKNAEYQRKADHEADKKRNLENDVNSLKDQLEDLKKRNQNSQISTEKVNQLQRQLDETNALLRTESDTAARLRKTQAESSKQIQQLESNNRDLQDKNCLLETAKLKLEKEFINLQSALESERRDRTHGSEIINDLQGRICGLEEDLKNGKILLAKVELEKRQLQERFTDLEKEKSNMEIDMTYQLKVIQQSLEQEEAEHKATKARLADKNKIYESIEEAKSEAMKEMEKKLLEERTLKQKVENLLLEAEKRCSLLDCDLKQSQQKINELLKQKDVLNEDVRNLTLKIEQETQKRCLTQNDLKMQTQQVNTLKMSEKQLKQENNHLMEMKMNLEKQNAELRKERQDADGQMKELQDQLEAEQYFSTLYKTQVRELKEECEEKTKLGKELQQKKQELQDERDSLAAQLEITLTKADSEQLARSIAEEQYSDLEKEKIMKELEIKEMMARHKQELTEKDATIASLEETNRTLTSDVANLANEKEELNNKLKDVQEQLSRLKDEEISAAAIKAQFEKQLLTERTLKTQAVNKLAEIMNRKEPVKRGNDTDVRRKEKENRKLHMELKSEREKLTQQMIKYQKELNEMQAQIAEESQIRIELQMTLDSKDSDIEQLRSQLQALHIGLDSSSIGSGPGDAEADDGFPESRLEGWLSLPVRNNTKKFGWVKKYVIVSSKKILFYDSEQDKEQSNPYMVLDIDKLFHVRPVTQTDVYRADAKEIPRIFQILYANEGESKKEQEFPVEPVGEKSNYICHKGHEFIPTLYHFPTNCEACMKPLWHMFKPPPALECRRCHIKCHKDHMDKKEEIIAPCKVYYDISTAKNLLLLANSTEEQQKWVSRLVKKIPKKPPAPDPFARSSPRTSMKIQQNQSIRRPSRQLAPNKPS
Description: C.1.1. Kinase inhibition (ROCKI or ROCKII)
Base Reaction buffer; 20 mM Hepes (pH 7.5), 10 mM MgCl2, 1 mM EGTA, 0.02% Brij35, 0.02 mg/ml BSA, 0.1 mM Na3VO4, 2 mM DTT, 1% DMSO—Required cofactors are added individually to each kinase reaction • Reaction Procedure: • 1. Prepare indicated substrate in freshly prepared Base Reaction Buffer • 2. Deliver any required cofactors to the substrate solution above • 3. Deliver indicated kinase into the substrate solution and gently mix • 4. Deliver compounds in DMSO into the kinase reaction mixture • 5. Deliver ^33P-ATP (specific activity 0.01 μCi/μl final) into the reaction mixture to initiate the reaction. • 6. […] Wash filters extensively in 0.1% Phosphoric acid.

[2] = Stability towards drug metabolizing enzymes in lung S9; type: in vitro ADME; conditions: human, lung S9 (from smokers) with NADPH, UDPGA, PAPS and GSH, read-out: t½ human lung S9
Description: C.2.2. Stability Towards Drug Metabolizing Enzymes in Lung S9
A 1 μM solution of the ROCK inhibitors is incubated with a reaction mixture containing lung S9 (from smokers) as well as the cofactors NADPH, UDPGA, PAPS and GSH. Samples are collected at 0, 15, 30 and 60 minutes post incubation. Negative control samples incubated with ROCK inhibitors and S9 fraction in the absence of cofactors are run in parallel. By using LC-MS/MS analysis, the percent of ROCK compounds remaining at each time point, the metabolic half-life of the ROCK compounds (expressed in minutes) and the metabolic half-life of the control compounds are determined.

[3] = Stability assay in human plasma; type: in vitro ADME; conditions: 1 μM compound in human plasma, LC-MS/MS; read-out: t½ human plasma
Description: C.2.1. Stability Assay in Human and/or Rat Plasma
Compounds are incubated at a concentration of 1 μM in rat (mice, dog, monkey, minipig or rabbit) or human plasma. Samples are taken at fixed time points and the remnant of compound is determined by LC-MS/MS after protein precipitation. Half life is expressed in minutes.

[4] = Stability assay in rabbit aqueous humor; type: in vitro ADME; conditions: 1 μM in rabbit aqueous humor, LC-MS/MS; read-out: t½ Rabbit AH
Description: C.2.3. Stability Assay in Rabbit Aqueous Humor
Compounds are incubated at a concentration of 1 μM in rabbit aqueous humor (AH). Samples are taken at fixed time points and the remnant of compound is determined by LC-MS/MS after protein precipitation.

IC50 [1] [nM]	IC50 (ROCK II) [nM]	SMILES	also measured
< 200	< 10	CCCOC(=O)c1ccc(F)c(NC(=O)c2cccc(-c3cc(C(=O)Nc4ccncc4F)ccc3CN)c2)c1 [Compound 12]	
< 200	< 10	COC(=O)c1cccc(NC(=O)c2cccc(-c3cc(C(=O)Nc4ccncc4F)ccc3CN)c2)c1 [Compound 1]	half-life at 1 μM [2]: > 0.5 h; half-life at 1 μM [3]: < 0.0833 h; half-life at 1 μM [4]: > 1 h
	< 10	CCOC(=O)c1nnc(NC(=O)c2cccc(-c3cc(C(=O)Nc4ccncc4F)ccc3CN)c2)o1 [Compound 14]	
	< 10	COC(=O)c1cc(F)cc(NC(=O)c2cccc(-c3cc(C(=O)Nc4ccncc4F)ccc3CN)c2)c1 [Compound 9]	
	< 10	COC(=O)c1cncc(NC(=O)c2cccc(-c3cc(C(=O)Nc4ccncc4F)ccc3CN)c2)c1 [Compound 7]	
< 200	< 10	CCCOC(=O)c1cccc(NC(=O)c2cccc(-c3cc(C(=O)Nc4ccncc4F)ccc3CN)c2)c1 [Compound 8]	half-life at 1 μM [3]: < 0.0833 h; half-life at 1 μM [4]: > 1 h
	< 10	CCCOC(=O)c1ccc(NC(=O)c2cccc(-c3cc(C(=O)Nc4ccncc4F)ccc3CN)c2)cc1C [Compound 21]	
< 200	< 10	COC(=O)Cc1cccc(NC(=O)c2cccc(-c3cc(C(=O)Nc4ccncc4F)ccc3CN)c2)c1 [Compound 2]	
	< 10	COC(=O)c1ccc(NC(=O)c2cccc(-c3cc(C(=O)Nc4ccncc4F)ccc3CN)c2)o1 [Compound 15]	
	< 10	CCCOC(=O)c1cc(NC(=O)c2cccc(-c3cc(C(=O)Nc4ccncc4F)ccc3CN)c2)ccc1C [Compound 22]	
	< 10	COC(=O)c1ccc(NC(=O)c2cccc(-c3cc(C(=O)Nc4ccncc4F)ccc3CN)c2)cc1C [Compound 13]	
< 200	< 10	COC(=O)c1cccc(C(=O)Nc2cccc(-c3cc(C(=O)Nc4ccncc4F)ccc3CN)c2)c1 [Compound 17]	
	< 10	COC(=O)c1csc(NC(=O)c2cccc(-c3cc(C(=O)Nc4ccncc4F)ccc3CN)c2)n1 [Compound 11]	
	< 10	COC(=O)c1ccc(C(=O)Nc2cccc(-c3cc(C(=O)Nc4ccncc4F)ccc3CN)c2)nc1 [Compound 18]	
< 200	< 10	COC(=O)Cc1ccc(NC(=O)c2cccc(-c3cc(C(=O)Nc4ccncc4F)ccc3CN)c2)cc1 [Compound 4]	
	< 10	CCCOC(=O)Cc1cccc(NC(=O)c2cccc(-c3cc(C(=O)Nc4ccncc4F)ccc3CN)c2)c1 [Compound 19]	
< 200	< 10	COC(=O)c1ccc(NC(=O)c2cccc(-c3cc(C(=O)Nc4ccncc4F)ccc3CN)c2)cc1 [Compound 3]	
	< 10	COC(=O)c1cc(NC(=O)c2cccc(-c3cc(C(=O)Nc4ccncc4F)ccc3CN)c2)ccc1C [Compound 20]	
< 200	< 100	CCCOC(=O)c1cc(F)cc(NC(=O)c2cccc(-c3cc(C(=O)Nc4ccncc4F)ccc3CN)c2)c1 [Compound 10]	
	< 10	NCc1ccc(C(=O)Nc2ccncc2F)cc1-c1cccc(NC(=O)c2ccc3c(c2)COC3=O)c1 [Compound 5]	half-life at 1 μM [3]: < 1 h
< 200	< 10	COC(=O)c1ccc(F)c(NC(=O)c2cccc(-c3cc(C(=O)Nc4ccncc4F)ccc3CN)c2)c1 [Compound 6]	half-life at 1 μM [3]: < 1 h
	< 10	COC(=O)c1ccc(C(=O)Nc2cccc(-c3cc(C(=O)Nc4ccncc4F)ccc3CN)c2)cc1 [Compound 16]	
